# Entries after “also recorded” stand apart in the source; their conditions may differ.
# What was measured:
# [1] = system: cultured cells derived from hyperplastic wounds; assay: SRB cell viability, hyperplastic wound cells; format: cell-based, human; settings: hyperplastic wound cell cultures, vs DMSO control, SRB assay
# Description: (§1) The biological relevance of the screen was considerable since cells used for the screen were obtained from patients with hyperplastic wounds as well as healthy tissue. The experiments were repeated in triplicate within 96 well plates, with each well containing 4000 cells treated with between 0.1 1.0, or 10 μM of compound or DMSO as a control. The Sulforhodamine B assay (SRB) was used to measure cell viability.
# [2] = system: normal dermal fibroblast cultures; assay: SRB cell viability, normal fibroblasts; format: cell-based, human; settings: SRB assay
# Description: as §1
# [3] = system: β-catenin; assay: Western blot of β-catenin in hyperplastic wound cell cultures; format: cell-based, human; settings: vs DMSO control
# Description: Tissue samples were washed twice with PBS and lysed with Reporter Gene Assay Lysis Buffer (Roche). Lysates were centrifuged at 16,000×g for 5 minutes to remove cell debris and quantified using the Bicinchoninic Acid (BCA) Protein Assay (Pierce). Equal amounts of total protein were separated by electrophoresis through an SDS-polyacrylamide gel, transferred to a nitrocellulose membrane (Amersham), and immunoblotted overnight at 4° C. with primary antibodies against phosphoGSK3β ([…], rabbit polyclonal, New England Biolabs), β-catenin (mouse monoclonal, Upstate Biotechnology), total GSK3β (mouse monoclonal, Transduction Laboratories), and GAPDH (mouse monoclonal, Upstate Biotechnology). Horseradish Peroxidase (HRP)-tagged secondary antibodies and Enhanced ChemiLuminescence (Amersham) were used to detect hybridization. Densitometery was performed using the AlphaEaseFC software (Alpha Innotech). Western blotting was performed in triplicates to ensure reproducibility. β-catenin levels in cell cultures from hyperplastic scars treated with Nefopam or control were analyzed using Western blot analysis. […] GAPDH expression was included as a loading control.
# [4] = system: aggressive fibromatosis (AF) tumours; assay: Apc+/Apc1638N AF mouse model; format: in vivo; settings: male Apc/Apc1638N mice
# Description: The generation and phenotype of Apc/Apc1638N mice have been well characterized. These mice harbour a targeted mutation at codon 1638 in the Apc gene as a result of a neomycin insert in antisense orientation at exon 15. […] Treatment by daily oral gavaging began 2 months after Apc/Apc1638N mice were weaned and continued for 3 months. At autopsy, AF tumours and intestinal polyps were scored macroscopically. AF tumours and normal tissue were collected for protein extraction and fixed for histological examination.
# [5] = system: β-catenin; assay: Western blot/densitometry of β-catenin in human AF tumour primary cell cultures; format: cell-based
# Description: Primary cell cultures from the human AF tumour and normal fascial tissue samples were established. Monolayer cultures were cultured in DMEM supplemented with 10% fetal bovine serum and maintained at 37° C. in 5% CO2. Cells were divided when confluent and experiments were performed between the first and fifth passages. […] Tissue samples were washed twice with PBS and lysed with Reporter Gene Assay Lysis Buffer (Roche). Lysates were centrifuged at 16,000×g for 5 minutes to remove cell debris and quantified using the Bicinchoninic Acid (BCA) Protein Assay (Pierce). Equal amounts of total protein were separated by electrophoresis through an SDS-polyacrylamide gel, transferred to a nitrocellulose membrane (Amersham), and immunoblotted overnight at 4° C. with primary antibodies against phosphoGSK3β ([…], rabbit polyclonal, New England Biolabs), β-catenin (mouse monoclonal, Upstate Biotechnology), total GSK3β (mouse monoclonal, Transduction Laboratories), and GAPDH (mouse monoclonal, Upstate Biotechnology). Horseradish Peroxidase (HRP)-tagged secondary antibodies and Enhanced ChemiLuminescence (Amersham) were used to detect hybridization. Densitometery was performed using the AlphaEaseFC software (Alpha Innotech). Western blotting was performed in triplicates to ensure reproducibility.
# [6] = system: primary cells derived from human AF tumours; assay: Trypan Blue cell viability, human AF tumour cells; format: cell-based; settings: 5 days, vs 0.1% DMSO
# Description: (§2) Primary cell cultures from the human AF tumour and normal fascial tissue samples were established. Monolayer cultures were cultured in DMEM supplemented with 10% fetal bovine serum and maintained at 37° C. in 5% CO2. Cells were divided when confluent and experiments were performed between the first and fifth passages.
# (§3) Cell viability was measured using the Trypan Blue Dye Exclusion method. Cells were stained with Trypan Blue Dye at a 1:1 ratio, and both live (clear) and dead (blue) cells were accounted for. Proliferation was measured using 5-bromo-2-deoxy-uridine (BrdU) Incorporation assay. After BrdU incubation for 12 hours, cells with incorporated BrdU were identified using […] anti-BrdU antibody and horse anti-mouse antibody conjugated to Alkaline Phosphatase. Presence of BrdU was detected using Alkaline Phosphatase substrate. Percentage of positively stained nuclei out of total nuclei was analyzed over 10 high-powered fields.
# [7] = system: primary cells derived from human aggressive fibromatosis tumours; assay: BrdU incorporation proliferation assay, human AF tumour cells; format: cell-based; settings: 5 days, vs DMSO
# Description: as §2, §3
# [8] = system: β-catenin; assay: Western blot/densitometry of β-catenin in human fibroblast cells; format: cell-based
# Description: Tissue samples were washed twice with PBS and lysed with Reporter Gene Assay Lysis Buffer (Roche). Lysates were centrifuged at 16,000×g for 5 minutes to remove cell debris and quantified using the Bicinchoninic Acid (BCA) Protein Assay (Pierce). Equal amounts of total protein were separated by electrophoresis through an SDS-polyacrylamide gel, transferred to a nitrocellulose membrane (Amersham), and immunoblotted overnight at 4° C. with primary antibodies against phosphoGSK3β ([…], rabbit polyclonal, New England Biolabs), β-catenin (mouse monoclonal, Upstate Biotechnology), total GSK3β (mouse monoclonal, Transduction Laboratories), and GAPDH (mouse monoclonal, Upstate Biotechnology). Horseradish Peroxidase (HRP)-tagged secondary antibodies and Enhanced ChemiLuminescence (Amersham) were used to detect hybridization. Densitometery was performed using the AlphaEaseFC software (Alpha Innotech). Western blotting was performed in triplicates to ensure reproducibility. Hyperplastic wounds are characterized by elevated β-catenin levels during the proliferative phase.
# [9] = system: β-catenin; assay: Western blot of β-catenin in wounds of Tcf mice; format: in vivo, mouse; settings: 40 mg/kg daily intraperitoneal, 14 days post-wounding, vs control
# Description: A Tcf-reporter construct containing the lacZ gene downstream of a c-Fos minimal promoter and three consensus Tcf-binding motifs was constructed. Upon binding of β-catenin/Tcf complex to Tcf motifs, the expression of lacZ is activated. Tcf mice were wounded as described previously: two 4 mm diameter full-thickness skin wounds were generated using a dermal biopsy punch (Miltex Instrument Company, York, Pa., USA). […] At 14 days post-wounding, wound sizes were examined, and wound tissues were collected for RNA and protein extraction and fixed for histological examination. Tissue samples were washed twice with PBS and lysed with Reporter Gene Assay Lysis Buffer (Roche). Lysates were centrifuged at 16,000×g for 5 minutes to remove cell debris and quantified using the Bicinchoninic Acid (BCA) Protein Assay (Pierce). Equal amounts of total protein were separated by electrophoresis through an SDS-polyacrylamide gel, transferred to a nitrocellulose membrane (Amersham), and immunoblotted overnight at 4° C. with primary antibodies against phosphoGSK3β ([…], rabbit polyclonal, New England Biolabs), β-catenin (mouse monoclonal, Upstate Biotechnology), total GSK3β (mouse monoclonal, Transduction Laboratories), and GAPDH (mouse monoclonal, Upstate Biotechnology). Horseradish Peroxidase (HRP)-tagged secondary antibodies and Enhanced ChemiLuminescence (Amersham) were used to detect hybridization. […]
# [10] = system: 4 mm full thickness cutaneous wounds; assay: Wound/scar size in Tcf mice, systemic Nefopam; format: in vivo, mouse; settings: 4 mm punch wound, 40 mg/kg daily systemic, day 14 post-wounding, vs saline carrier
# Description: A Tcf-reporter construct containing the lacZ gene downstream of a c-Fos minimal promoter and three consensus Tcf-binding motifs was constructed. Upon binding of β-catenin/Tcf complex to Tcf motifs, the expression of lacZ is activated. Tcf mice were wounded as described previously: two 4 mm diameter full-thickness skin wounds were generated using a dermal biopsy punch (Miltex Instrument Company, York, Pa., USA). […] At 14 days post-wounding, wound sizes were examined, and wound tissues were collected for RNA and protein extraction and fixed for histological examination. […] Cutaneous wounds were generated using a biopsy punch procedure resulting in a 4 mm diameter full thickness circular wound. Scale is in mm units.
# [11] = system: hyperplastic scars; assay: TGF-β induced hyperplastic scar model; format: in vivo, mouse; settings: mice, TGF-β injected prior to wounding, 4 mm punch wounds, 40 mg/kg daily
# Description: Both oral and intraperitoneal administration routes were evaluated (40 mg/kg body weight, daily; 0.1% DMSO as control).
smiles,measurement,setting,value
"CN1CCOC(c2ccccc2)c2ccccc2C1 (stereo not drawn) [Nefopam, 5-methyl-1-phenyl-1,3,4,6-tetrahydro-2,5-benzoxazocine]",percent cell survival,[1],significant decline in the percent of cells surviving
same,percent cell survival,[2],remained relatively unchanged
same,β-catenin protein levels,[3],substantially reduce β-catenin protein levels; also recorded: substantially reduced the protein level of β-catenin
same,number of epithelial-derived polyps in the upper gastrointestinal tract,[4]; 40 mg/kg daily oral gavage,no significant differences
same,number of AF tumours formed,"[4]; 40 mg/kg daily oral gavage for 3 months, at 6 months of age, mean ± 95% CI",8.18±1.77
same,decrease in total β-catenin levels (densitometry),[5]; 250 μm Nefopam for 5 days vs 0.1% DMSO,~5 fold
same,"total β-catenin protein (92 kDa), Western blot",[5]; treatment for 5 days,marked decrease in the amount of protein
same,number of dead cells,[6],the number of dead cells did not change; also recorded: no significant differences in the number of dead cells
same,number of live cells,[6],significantly decreased the number of live cells; also recorded: significantly smaller number of live cells
same,percent BrdU+/DAPI+ cells (proliferation),[7],significantly reduces the incorporation of BrdU; also recorded: significantly fewer proliferating cells
same,decrease in total β-catenin levels (densitometry),[8]; human fibroblast cell cultures vs 0.1% DMSO,approximately 4 fold
same,"total β-catenin protein levels, Western blot",[8]; immortalized human fibroblast cells vs DMSO,significant decrease in total β-catenin protein levels
same,β-catenin levels in wounds,[9],decrease in β-catenin levels
same,scar diameter,[10],significantly smaller in diameter
same,hyperplastic scar size,[11],smaller scars
